From US5962415A, “Compositions comprising a peptide inhibitor of nuclear protein translocation and an immunosuppressant and methods of use thereof” (Bristol-Myers Squibb Co., priority 1998, dated 1999) come the findings set out here.

Assay [1] relates to 70Z/3 murine B-cells. Kind of assay: LPS-induced CD40 expression in 70Z/3 cells. The following applies: 3 hr treatment prior to LPS, FIG. 5. Format: cell-based. The procedure: Expression of κ Ig, CD45, CD40, and the interleukin-2 receptor was assayed using standard enzyme-linked immunosorbent assays ("ELISAs") (see, Coligan et al. (eds.) (1991) Current Protocols in Immunology, Wiley & Sons, p. 2.10 or by FACS staining to measure cell-surface markers as described in Raff (1970) Immunology 19:637). Antibodies form cell surface markers were obtained from Pharmingen Co.
70Z/3 murine B-cells were treated with the SV40MEM polypeptide for 3 hr prior to activation with LPS. After activation with LPS, there was an approximately four-fold increase in CD40 expression above basal levels.

Assay [2] relates to THP-1 human monocytic cells. The assay is described as follows: LPS-stimulated cytokine (TNF-α, IL-8) production in THP-1 cells. The format is cell-based. The conditions noted are these: 5 μM or 10 μM, 2 hr preincubation, 5 hr LPS stimulation, FIG. 2. The method, then: Amounts of TNF-α, IL-6, IL-8 and IL-10 were determined using the ELISA kits obtained from Genzyme following the manufacturer's instructions.
THP-1 control cells were harvested, washed and set up in RPMI 1640, 10% fetal calf serum, at a concentration of 2.56×10^6 cells/ml. Phosphate buffered saline ("PBS") or one of the two respective polypeptides SV40MEM or SV40 (a peptide having only the SV40 large T antigen NLS sequence) were added to the cells at a concentration of 10 μM or 20 μM. The cells were then plated into a 96-well plate with 0.1 ml/well. The plate was then incubated for 2 hr at 37° C. in a 5% CO2 atmosphere. Following the initial incubation, media or a titration of LPS was added to each of the wells in a volume of 0.1 ml. Thus, the final concentrations of polypeptides were 5 μM or 10 μM. Following 5 hr of LPS stimulation, supernatants were taken and TNF-α and IL-8 levels were determined by ELISA. In addition, cells treated with PBS or polypeptides, but not incubated with LPS, were removed at the time of supernatant removal to determine the viability of the cells following 7 hr of contact with the polypeptides.
This experiment was conducted to compare the inhibitory effect of the SV40MEM polypeptide and other inhibitory polypeptides on LPS induction of cytokine production. THP-1 control cells (ATCC 9/95 stock) were harvested, washed and set up in RPMI 1640, 10% fetal calf serum as described in Example 2. The cells were incubated for 2 hr with PBS or (1) the FGF signal sequence, (2) a polypeptide having the FGF signal sequence and the NLS of NF-κB p50 on the carboxy terminus of the signal sequence, (3) the SV40MEM polypeptide comprised of L-amino acids, or (4) the SV40MEM polypeptide comprised of D-amino acids at a final concentration of 5 μM. The cells were then plated into a 96-well plate with 0.1 ml/well. The plate was then incubated for 2 hr at 37° C. in a 5% CO2 atmosphere. Following the initial incubation, media or a titration of LPS was added to each of the wells in a volume of 0.01 ml/well. Following 5 hr of LPS stimulation, supernatants were taken and TNF-α levels were determined by ELISA.

Assay [3] relates to HIVLAI in Jurkat cells. The assay is described as follows: Nuclear translocation of HIV genome in Jurkat cells infected with HIVLAI (gag and 2-LTR circle PCR). Format: cell-based, HIV-1. The conditions noted are these: SV40MEM 0.1 and 1.0 μM; NF-κBMEM 10 μM; 24 hr, FIG. 8B. The procedure:
HIV-1 M1 p24 levels were assayed using the procedures described in Smithgall et al (1995) AIDS Res. and Human Retrovirus 11:885. Proviral DNA content (gag) was measured using polymerase chain reaction analysis as described in Smithgall et al. (1995), supra.
2-LTR circles, a strictly nuclear form of HIV-1 DNA the expression of which indicates nuclear localization of the viral genome, was measured by as described in Bukrinsky et al (1991) Science 254:423.
Jurkat cells were incubated with the SV40MEM polypeptide for 3 hr with HIVLAI for 1-2 hr. The virus was washed out and the cultures supplemented with the appropriate inhibitor (SV40MEM, 0.1,μM and 1.0 μM; NF-κBMEM, 10 μM). After 24 hr, the cells were collected, lysed and evaluated for HIV-1 DNA by polymerase chain reaction analysis of gag sequences (see FIG. 8A) and 2-LTR circles (see FIG. 8B).

Assay [4] relates to BALB/c mice immunized with sheep red blood cells. Kind of assay: Murine sheep red blood cell assay (anti-SRBC antibody response). The format is in vivo. The procedure: Female BALB/c mice (6-8 weeks of age) were housed in groups of 5 in Thorne units with ad libitum access to food and water. Mice were immunized on day 0 by intravenous (IV) injection of 1×10^8 sheep red blood cells ("SRBCs"). The mice were then divided into groups of five and control solutions or inhibitory peptides were administered at various doses, either by IV injection or orally ("PO") by gavage with a 24-gauge feeding tube and routes.
The SV40MEM polypeptide was administered either intravenously (IV) or orally (PO) with the following schedule: IV administration of 5 mg/kg on days 0, 1, 2, and 3; PO administration of 1 mg/kg on days 0, 1, 2, 3, and 4. After 14 days, the mice were bled from the orbital sinus and the level of anti-SRBC antibodies were measured in the serum by ELISA. Briefly, Immulon 2 plates (Dynatech) were coated with SRBC membrane antigen (Anal. Biochem. 82:362-371 (1978)) at 5 μg/ml in 0.05 M carbonate/bicarbonate buffer (pH 9.6) and incubated overnight at 2-8° C. Plates were blocked for 1-hr at room temperature with Specimen Diluent Concentrate (Genetic Systems, Redmond, Wash.) diluted 1:10 with distilled water. The plates were washed in phosphate-buffered saline and 0.05% Tween-20 ("PBS/Tween"). Serum samples were diluted in Specimen Diluent and incubated for 1 hr at room temperature. After washing the plates in PBS/Tween, goat anti-mouse IgG1-horse radish peroxidase-conjugated ("IgG1-HRP") antibody (Southern Biotechnology, Birmingham Ala.) was added at 1:5000 dilution and incubated for 1 hr at room temperature. Plates were washed and conjugate binding was detected using 3,3',5,5'-tetramethylbenzidine ("TMB") (Genetic Systems) as the substrate. TMB was added and incubated for 15 min at room temperature. The reaction was stopped by the addition of 3 N H2 SO4. Absorbance at […] was recorded from duplicate samples using a microtiter plate reader (Bio Tek Instruments).

Assay [5] deals with Jurkat T-cells. Kind of assay: Apoptosis in anti-CD3-treated Jurkat T-cells. The format is cell-based, human. The procedure: A 24-hr incubation of Jurkat T-cells with SV40MEM and anti-CD3, caused greater than 85% of the cells to apoptose.
[6] abbreviates: IV 5 mg/kg days 0-3, serum day 14, FIG. 11A.
Setting [7] is: PO 1 mg/kg days 0-4, serum day 14, FIG. 11B.

As to “PKKKRKVAAVALLPAVLLALLAPKKKRKVC [SV40MEM, FGF signal peptide hydrophobic region flanked by SV40 large T antigen NLS]”, in assay [1], the “LPS-induced up-regulation of CD40” value is given as “inhibited this up-regulation of CD40”. In addition, the TNF-α production entry in assay [2] is given as “inhibited TNF-α production in a dose-dependent manner”. Besides, the “translocation of the viral genome into the nucleus (2-LTR circles)” value in assay [3] is “inhibited translocation of the viral genome into the nucleus”. Further, in assay [4] (setting [6]), the “specific anti-SRBC response” value is “inhibited” and the “total IgG levels” value is on record as “no effect”. Besides, in assay [4] (setting [7]), the “specific anti-SRBC response” value is on record as “inhibited” and the “total IgG levels” value was “no effect”. The cells undergoing apoptosis result in assay [5] (24-hr incubation with SV40MEM and anti-CD3) was “greater than 85%”. Further, the apoptosis result in assay [5] (SV40MEM alone, without anti-CD3) is “Neither SV40MEM nor anti-CD3 alone caused significant apoptosis”.
